# Test results published in ChEMBL document CHEMBL1201862, “PubChem BioAssay data set” (2004).
#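 Following 48 hours of exposure in 96-well plates, responses at five concentrations were used to interpolate endpoints linearly. GI50 marks 50% less growth.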 Activity calls are given as the source filed them. No stated cut-off is given here; in the data, active = GI50 up to about 1.1 µM and inactive = higher.
# Columns and labels:
# Assay in all cases: growth of human tumour cells (NCI), 48 h
# ACHN = test system: ACHN
# COLO 205 = test system: COLO 205
# EKVX = test system: EKVX
# HOP-62 = test system: HOP-62
# HOP-92 = test system: HOP-92
# K562 = test system: K562
# KM12 = test system: KM12
# M14 = test system: M14
# MOLT-4 = test system: MOLT-4
# NCI-H23 = test system: NCI-H23
# NCI/ADR-RES = test system: NCI/ADR-RES
# OVCAR-5 = test system: OVCAR-5
# RPMI-8226 = test system: RPMI-8226
# SF-295 = test system: SF-295
# SF-539 = test system: SF-539
# SK-MEL-5 = test system: SK-MEL-5
# SN12C = test system: SN12C
# SR = test system: SR
# U-251 = test system: U-251
# UACC-62 = test system: UACC-62
Compound,GI50 (ACHN),GI50 (COLO 205),GI50 (EKVX),GI50 (HOP-62),GI50 (HOP-92),GI50 (K562),GI50 (KM12),GI50 (M14),GI50 (MOLT-4),GI50 (NCI-H23),GI50 (NCI/ADR-RES),GI50 (OVCAR-5),GI50 (RPMI-8226),GI50 (SF-295),GI50 (SF-539),GI50 (SK-MEL-5),GI50 (SN12C),GI50 (SR),GI50 (U-251),GI50 (UACC-62)
COc1ccc(OC)c2c1C(=O)C(Cl)=C(N1CCN(CCOCCO)CC1)C2=O,16.6 µM (inactive),> 10 µM (inactive),18.9 µM (inactive),5.07 µM (inactive),17.7 µM (inactive),1.91 µM (inactive),20.5 µM (inactive),17.2 µM (inactive),4.32 µM (inactive),7.6 µM (inactive),26.5 µM (inactive),21 µM (inactive),2.94 µM (inactive),18.7 µM (inactive),17.8 µM (inactive),16.5 µM (inactive),12.4 µM (inactive),3.21 µM (inactive),21.4 µM (inactive),10.5 µM (inactive)
CCOP(=O)(OCC)C(Cc1ccc(OC)c(OC)c1)N=C(c1ccccc1)c1ccccc1 (stereo not given),41.6 µM (inactive),18.9 µM (inactive),–,–,37.9 µM (inactive),< 0.01 µM (active),36.4 µM (inactive),51.8 µM (inactive),–,41.6 µM (inactive),44.7 µM (inactive),70.5 µM (inactive),18.8 µM (inactive),26.2 µM (inactive),75 µM (inactive),23.4 µM (inactive),42 µM (inactive),6.84 µM (inactive),46.1 µM (inactive),68.7 µM (inactive)
O=C1Nc2ccccc2/C1=N/NC(=S)Nc1ccccc1Cl,2.19 µM (inactive),3.63 µM (inactive),4.34 µM (inactive),11.5 µM (inactive),3.7 µM (inactive),1.54 µM (inactive),1.98 µM (inactive),1.62 µM (inactive),1.43 µM (inactive),8.71 µM (inactive),0.384 µM (active),26.5 µM (inactive),–,1.29 µM (inactive),2.4 µM (inactive),2.89 µM (inactive),10.4 µM (inactive),< 0.01 µM (active),3.56 µM (inactive),3.94 µM (inactive)
COC(=O)C1C(C(=O)OC)C1(Br)CBr (stereo not given),25.8 µM (inactive),20 µM (inactive),25.1 µM (inactive),> 100 µM (inactive),22.9 µM (inactive),–,> 100 µM (inactive),31.5 µM (inactive),6.15 µM (inactive),70.1 µM (inactive),> 100 µM (inactive),25.4 µM (inactive),16.5 µM (inactive),> 100 µM (inactive),40.6 µM (inactive),> 99.5 µM (inactive),27.5 µM (inactive),17.9 µM (inactive),> 100 µM (inactive),> 100 µM (inactive)
CN1C(=O)C2C=C3CCCCC3=CC2N(C)C1=O (stereo not given),> 100 µM (inactive),> 100 µM (inactive),77.4 µM (inactive),> 100 µM (inactive),99.1 µM (inactive),> 100 µM (inactive),> 100 µM (inactive),> 100 µM (inactive),> 100 µM (inactive),> 100 µM (inactive),> 100 µM (inactive),> 100 µM (inactive),> 100 µM (inactive),> 100 µM (inactive),> 100 µM (inactive),> 100 µM (inactive),> 100 µM (inactive),> 100 µM (inactive),> 100 µM (inactive),> 100 µM (inactive)
CCOC(=O)CCC(NC(=O)c1ccc(Nc2nc3cc(C(F)(F)F)ccc3nc2C(=O)OCC)cc1)C(=O)OCC (stereo not given),13.8 µM (inactive),4.14 µM (inactive),15.9 µM (inactive),14 µM (inactive),0.975 µM (active),95.3 µM (inactive),> 10 µM (inactive),4.51 µM (inactive),> 100 µM (inactive),16 µM (inactive),12.2 µM (inactive),16.6 µM (inactive),24.9 µM (inactive),5.74 µM (inactive),12.6 µM (inactive),23.9 µM (inactive),10.7 µM (inactive),> 100 µM (inactive),11.3 µM (inactive),9.16 µM (inactive)
O=S(=O)(N/C(=N\O)Nc1ccc(Cl)cc1)c1ccccc1,12.2 µM (inactive),20.4 µM (inactive),10.3 µM (inactive),44.8 µM (inactive),2.94 µM (inactive),6.64 µM (inactive),24.2 µM (inactive),12.7 µM (inactive),3.23 µM (inactive),16.2 µM (inactive),12 µM (inactive),14.5 µM (inactive),4.13 µM (inactive),36.6 µM (inactive),4.22 µM (inactive),9.04 µM (inactive),11.7 µM (inactive),1.15 µM (inactive),19.5 µM (inactive),14.6 µM (inactive)
Cn1c2ncccc2n2c(=O)cc(O)cc12,> 100 µM (inactive),53 µM (inactive),86.1 µM (inactive),39.4 µM (inactive),18.2 µM (inactive),> 100 µM (inactive),65.8 µM (inactive),> 100 µM (inactive),20.7 µM (inactive),> 100 µM (inactive),81.5 µM (inactive),88.3 µM (inactive),> 100 µM (inactive),97.9 µM (inactive),> 100 µM (inactive),> 100 µM (inactive),–,> 100 µM (inactive),> 100 µM (inactive),77.3 µM (inactive)
COCO[C@@H]1C[C@H]2C(O)Nc3ccccc3C(=O)N2C1 (stereo not given in full),> 100 µM (inactive),> 100 µM (inactive),> 100 µM (inactive),> 100 µM (inactive),> 100 µM (inactive),> 100 µM (inactive),> 100 µM (inactive),> 100 µM (inactive),> 100 µM (inactive),> 100 µM (inactive),> 100 µM (inactive),> 100 µM (inactive),> 100 µM (inactive),> 100 µM (inactive),> 100 µM (inactive),> 100 µM (inactive),–,> 100 µM (inactive),> 100 µM (inactive),> 100 µM (inactive)
Cc1ccc(S(=O)(=O)C2=Cc3ccc(C(F)(F)F)cc3C2(O)c2cccc(C(F)(F)F)c2)cc1 (stereo not given),2.46 µM (inactive),1.79 µM (inactive),2.87 µM (inactive),7.35 µM (inactive),1.88 µM (inactive),1.99 µM (inactive),1.88 µM (inactive),2.4 µM (inactive),2.5 µM (inactive),2.01 µM (inactive),2.71 µM (inactive),2.08 µM (inactive),2.65 µM (inactive),2.45 µM (inactive),1.95 µM (inactive),1.88 µM (inactive),1.88 µM (inactive),2.43 µM (inactive),1.87 µM (inactive),2.39 µM (inactive)
Nc1nccc2c1ncn2[C@H]1C[C@H](O)[C@@H](CO)O1,–,> 100 µM (inactive),–,> 100 µM (inactive),> 100 µM (inactive),> 100 µM (inactive),> 100 µM (inactive),> 100 µM (inactive),> 100 µM (inactive),> 100 µM (inactive),> 100 µM (inactive),> 100 µM (inactive),> 100 µM (inactive),> 100 µM (inactive),–,> 100 µM (inactive),> 100 µM (inactive),> 100 µM (inactive),> 100 µM (inactive),> 100 µM (inactive)
CC1(C)CCC[C@]2(C)[C@@H](C=O)C(C=O)=CC[C@@H]12 [POLYGODIAL],16.9 µM (inactive),18.2 µM (inactive),24.8 µM (inactive),30.6 µM (inactive),20.6 µM (inactive),–,14.7 µM (inactive),17.5 µM (inactive),9.33 µM (inactive),28 µM (inactive),18.6 µM (inactive),16.4 µM (inactive),10.7 µM (inactive),21.9 µM (inactive),19.3 µM (inactive),15.6 µM (inactive),20.6 µM (inactive),18.2 µM (inactive),19 µM (inactive),18.4 µM (inactive)
O=C1CSC2(CC(/C=C/c3cccc([N+](=O)[O-])c3)=NN2c2cccc(S(=O)(=O)O)c2)N1c1nc2ccccc2s1 (stereo not given),25.8 µM (inactive),50.8 µM (inactive),44.8 µM (inactive),–,9.46 µM (inactive),28.6 µM (inactive),22 µM (inactive),30.7 µM (inactive),22.4 µM (inactive),16.7 µM (inactive),22.5 µM (inactive),23.4 µM (inactive),17.4 µM (inactive),–,29.6 µM (inactive),28.1 µM (inactive),22.4 µM (inactive),19.6 µM (inactive),17.6 µM (inactive),19.1 µM (inactive)
O=C1c2ccccc2C(=O)c2c(OCCOCCO)cccc21,43.9 µM (inactive),> 100 µM (inactive),> 100 µM (inactive),> 100 µM (inactive),12.6 µM (inactive),> 100 µM (inactive),46.6 µM (inactive),> 100 µM (inactive),58.3 µM (inactive),> 100 µM (inactive),> 100 µM (inactive),> 100 µM (inactive),–,96.6 µM (inactive),45.3 µM (inactive),44.2 µM (inactive),0.714 µM (active),66.7 µM (inactive),> 100 µM (inactive),0.585 µM (active)
COC(=O)C1=COC2OC3CC1C2C(C)O3 (stereo not given),> 100 µM (inactive),> 100 µM (inactive),> 100 µM (inactive),> 100 µM (inactive),> 100 µM (inactive),–,> 100 µM (inactive),> 100 µM (inactive),> 100 µM (inactive),> 100 µM (inactive),> 100 µM (inactive),> 100 µM (inactive),> 100 µM (inactive),> 100 µM (inactive),> 100 µM (inactive),> 100 µM (inactive),> 100 µM (inactive),> 100 µM (inactive),> 100 µM (inactive),> 100 µM (inactive)
